Test results from patent publication US4806566A, “Anti-gram positive bacteria tri-yne carbonates” (Merck & Co., Inc., priority 1987, dated 1989).
In brackets after ≈: the same amount, converted by molar mass.

Columns and labels:
S. arueus = assay: Minimum inhibitory concentration, agar dilution, S. aureus; assay type: cell-based; settings: Staphylococcus aureus, 24 h
Procedure: (§1) The free acid of the compound of formula I was prepared as aqueous solutions at a concentration of 1.28 mg/ml. Comparative agents vancomycin and streptomycin were prepared at 1.28 mg/ml in Sorensens' buffer, pH 7.
(§2) Each of the drugs was serially diluted twofold in 20×100 mm sterile petri dishes with the aid of a Pipetman. To each plate containing 1 ml of the antibiotic dilution was added 9 ml molten trypticase soy agar (TSA) (BBL) to yield final drug concentrations ranging from 128-0.031 mcg/ml. Plates were swirled to mix, allowed to solidify at room temperature and were stored overnight at 5° C.
(§3) Cultures were grown in trypticase soy broth (TSB) for 16 hours at 35° C. They were diluted 1-100 in TSB to obtain an inoculum of 10^4 cfu/spot when plated using a Denley multipoint inoculator calibrated to deliver 0.0015 ml. Inoculated plates were incubated for 24 hours at 35° C.
(§4) The minimum inhibitory concentration (MIC) was defined as the lowest concentration that allowed no growth or a barely visible haze.

[1] = Stability of the free acid to concentration; assay type: physicochemical; settings: on concentration of solutions
Procedure: (d) Due to the instability of the free acid of the compound of formula I to concentration, an alternate method was used to provide concentrated solutions. LH20 fractions 13-25 from Step C, 3250 ml, was extracted with 500 ml of 0.1M potassium phosphate buffer pH 7.2. The compound was extracted into the aqueous layer, 620 ml, which was reextracted with 200 ml of methylene chloride at pH 4.5. The methylene chloride extract was dried over anhydrous sodium sulfate. The extraction volumes could be adjusted to provide varying concentrations of the free acid of the compound of formula I in methylene chloride.

[2] = test system: Staphyloccoccus aureus methicillin-resistant (S. aureus Meth-R); assay: Minimum inhibitory concentration, agar dilution, methicillin-resistant Staphylococcus aureus; assay type: cell-based; settings: one isolate per line, 10^4 cfu/spot, trypticase soy agar, 24 hours at 35° C.
Procedure: as §1, §2, §3, §4

Streptococcus faecalis = assay: Minimum inhibitory concentration, agar dilution, Streptococcus faecalis; assay type: cell-based; settings: Enterococcus faecalis, 24 h, one isolate per line, 10^4 cfu/spot, trypticase soy agar, 24 hours at 35° C.
Procedure: as §1, §2, §3, §4

Row | SMILES | MIC (S. arueus) | instability of the free acid to concentration [1] | MIC [2] | MIC (Streptococcus faecalis)
1 | C#CC#CC#CC(O)C1OC(=O)OC1CCCCCCC(=O)O (stereo not drawn) [Free Acid of the Compound of Formula I, 5-(1-hydroxy-2,4,6-heptatriynyl)-2-oxo-1,3 dioxolane] | 1 mg/L | instability | 0.5 mg/L | –
2 | [H]/N=C(/N)N[C@H]1[C@H](O)[C@@H](O)[C@H](O[C@@H]2O[C@@H](C)[C@](O)(C=O)[C@H]2O[C@@H]2O[C@@H](CO)[C@H](O)[C@@H](O)[C@@H]2NC)[C@@H](N/C(N)=N\[H])[C@@H]1O [Streptomycin] | 116 mg/L (≈ 199 µM) | – | – | > 128 mg/L
3 | CN[C@H](CC(C)C)C(=O)N[C@H]1C(=O)N[C@@H](CC(N)=O)C(=O)N[C@H]2C(=O)N[C@H]3C(=O)N[C@H](C(=O)N[C@H](C(=O)O)c4cc(O)cc(O)c4-c4cc3ccc4O)[C@H](O)c3ccc(c(Cl)c3)Oc3cc2cc(c3O[C@@H]2O[C@H](CO)[C@@H](O)[C@H](O)[C@H]2O[C@H]2C[C@](C)(N)[C@H](O)[C@H](C)O2)Oc2ccc(cc2Cl)[C@H]1O [Vancomycin] | – | – | – | 4 mg/L (≈ 2.76 µM)
